The results in this text go back to patent US9902794B2, “Curable composition, optical component and compound” (FUJIFILM Corporation, priority 2014, dated 2018).

Structures are written as SMILES.

The series in a line: Solvent solubility evaluation of aromatic ring-containing compound in PGMEA. The note with it: 1 g compound and 1 mL PGMEA stirred for 24 hours at 25° C. The format is physicochemical. On the procedure:
<Solvent Solubility Evaluation>
1 g of an aromatic ring-containing compound and 1 mL of propylene glycol monomethyl ether acetate (PGMEA) were stirred for 24 hours at 25° C. and then the aromatic ring-containing compound was mixed with PGMEA uniformly and evaluated by the following criteria.
A: 50% by mass or more of an aromatic ring-containing compound were dissolved in PGMEA.
B: 30% by mass or more and less than 50% by mass of an aromatic ring-containing compound were dissolved in PGMEA.
C: 5% by mass or more and less than 30% by mass of an aromatic ring-containing compound were dissolved in PGMEA.
D: The amount of an aromatic ring-containing compound dissolved in PGMEA was less than 5% by mass.
The solvent solubility of an aromatic ring-containing compound was measured in the same manner as described above.
Consider `C=CC(=O)OCCOc1ccc(C2(c3ccc(OCCOC(=O)C=C)cc3)c3ccccc3-c3ccccc32)cc1` [Comparative Compound 1, reference compound], for which the Solvent solubility evaluation result is “C (5% by mass or more and less than 30% by mass of an aromatic ring-containing compound were dissolved in PGMEA)”.

On to `C=CC(=O)OCCOc1ccc2c(c1)-c1cc3ccccc3cc1C2(c1ccc(-c2nc3ccccc3s2)cc1)c1ccc2cc(OCCOC(=O)C=C)ccc2c1` (stereo not drawn) [Compound 1], for which the Solvent solubility evaluation entry is “A (50% by mass or more of an aromatic ring-containing compound were dissolved in PGMEA)”.

For the compound `C=CC(=O)OCCOc1ccc2c(c1)-c1cc3ccccc3cc1C2(c1ccc(-c2nc3ccccc3s2)cc1)c1ccc(OCCOC(=O)C=C)c2ccccc12` (stereo not drawn) [Compound 2], the Solvent solubility evaluation result is given as “A (50% by mass or more of an aromatic ring-containing compound were dissolved in PGMEA)”.

For the compound `C=CC(=O)OCCOc1ccc2nc(-c3ccc(C4(c5ccc(-c6nc7ccc(OCCOC(=O)C=C)cc7s6)cc5)c5ccccc5-c5ccccc54)cc3)sc2c1` [Compound 3], the Solvent solubility evaluation entry is given as “A (50% by mass or more of an aromatic ring-containing compound were dissolved in PGMEA)”.

On to `C=CC(=O)OCCOc1ccc(-c2ccc3nc(C4(c5nc6ccc(-c7ccc(OCCOC(=O)C=C)cc7)cc6s5)c5ccccc5-c5cc6ccccc6cc54)sc3c2)cc1` [Compound 4], for which the Solvent solubility evaluation result is “A (50% by mass or more of an aromatic ring-containing compound were dissolved in PGMEA)”.

Consider `C=CC(=O)OCCOc1ccc2cc(-c3ccc4nc(C5(c6nc7ccc(-c8ccc9cc(OCCOC(=O)C=C)ccc9c8)cc7s6)c6ccccc6-c6cc7ccccc7cc65)sc4c3)ccc2c1` [Compound 5], for which the Solvent solubility evaluation result is reported as “A (50% by mass or more of an aromatic ring-containing compound were dissolved in PGMEA)”.

Turning to `C=CC(=O)OCCOc1ccc2nc(-c3ccc(C4(c5ccc(-c6nc7ccc(OCCOC(=O)C=C)cc7s6)cc5)c5ccccc5-c5cc6ccccc6cc54)cc3)sc2c1` [Compound 6], the Solvent solubility evaluation result is “A (50% by mass or more of an aromatic ring-containing compound were dissolved in PGMEA)”.

Turning to `C=CC(=O)OCCOc1ccc(-c2nc3ccc(C4(c5ccc6nc(-c7ccc(OCCOC(=O)C=C)cc7)sc6c5)c5ccccc5-c5ccccc54)cc3s2)cc1` [Compound 7], the Solvent solubility evaluation result is on record as “A (50% by mass or more of an aromatic ring-containing compound were dissolved in PGMEA)”.

As to `C=CC(=O)OCCOc1ccc2cc(-c3nc4ccc(C5(c6ccc7nc(-c8ccc9cc(OCCOC(=O)C=C)ccc9c8)sc7c6)c6ccccc6-c6ccccc65)cc4s3)ccc2c1` [Compound 8], the Solvent solubility evaluation result is “A (50% by mass or more of an aromatic ring-containing compound were dissolved in PGMEA)”.

As for `C=CC(=O)OCCOc1ccc(-c2nc3ccc(C4(c5ccc6nc(-c7ccc(OCCOC(=O)C=C)cc7)sc6c5)c5ccccc5-c5cc6ccccc6cc54)cc3s2)cc1` [Compound 9], the Solvent solubility evaluation entry is on record as “A (50% by mass or more of an aromatic ring-containing compound were dissolved in PGMEA)”.

For the compound `C=CC(=O)OCCOc1ccc2cc(-c3nc4ccc(C5(c6ccc7nc(-c8ccc9cc(OCCOC(=O)C=C)ccc9c8)sc7c6)c6ccccc6-c6cc7ccccc7cc65)cc4s3)ccc2c1` [Compound 10], the Solvent solubility evaluation result is “A (50% by mass or more of an aromatic ring-containing compound were dissolved in PGMEA)”.

For the compound `C=CC(=O)OCCOc1ccc(-c2nc3cc(C(c4ccccc4)(c4ccccc4)c4ccc5sc(-c6ccc(OCCOC(=O)C=C)cc6)nc5c4)ccc3s2)cc1` [Compound A], the Solvent solubility evaluation result is “B (30% by mass or more and less than 50% by mass of an aromatic ring-containing compound were dissolved in PGMEA)”.

Regarding `C=CC(=O)OCCOc1ccc2c(c1)-c1cc(OCCOC(=O)C=C)ccc1C2(c1ccc2nc(-c3ccccc3)sc2c1)c1ccc2nc(-c3ccccc3)sc2c1` [Compound B], the Solvent solubility evaluation entry was “B (30% by mass or more and less than 50% by mass of an aromatic ring-containing compound were dissolved in PGMEA)”.

In the case of `C=CC(=O)OCCOc1ccc(-c2ccc(C3(c4ccc(OCCOC(=O)C=C)cc4)c4ccccc4-c4cc5sc(-c6ccccc6)nc5cc43)cc2)cc1` (stereo not drawn) [Compound C], the Solvent solubility evaluation entry was “B (30% by mass or more and less than 50% by mass of an aromatic ring-containing compound were dissolved in PGMEA)”.

Consider `C=CC(=O)OCCOc1ccc2c(c1)C(c1ccc(-c3nc4ccccc4o3)cc1)(c1ccc3cc(OCCOC(=O)C=C)ccc3c1)c1cc3ccccc3cc1-2` (stereo not drawn) [Compound D], for which the Solvent solubility evaluation entry was “B (30% by mass or more and less than 50% by mass of an aromatic ring-containing compound were dissolved in PGMEA)”.

With `C=CC(=O)OCCOc1ccc2cc(C3(c4ccc(OCCOC(=O)C=C)c(-c5nc6ccccc6s5)c4)c4ccccc4-c4cc5ccccc5cc43)ccc2c1` (stereo not drawn) [Compound E], the Solvent solubility evaluation entry is listed as “A (50% by mass or more of an aromatic ring-containing compound were dissolved in PGMEA)”.

Regarding `C=CC(=O)OCCOc1ccc(C2(c3ccc4sc(-c5ccccc5)nc4c3)c3ccccc3-c3cc(OCCOC(=O)C=C)ccc32)cc1` (stereo not drawn) [Compound F], the Solvent solubility evaluation result is “B (30% by mass or more and less than 50% by mass of an aromatic ring-containing compound were dissolved in PGMEA)”.

For the compound `C=CC(=O)OCCOc1ccc(C2(c3ccc(OCCOC(=O)C=C)cc3)c3ccccc3-c3cc4sc(-c5ccccc5)nc4cc32)cc1` [Compound G], the Solvent solubility evaluation result is “B (30% by mass or more and less than 50% by mass of an aromatic ring-containing compound were dissolved in PGMEA)”.

In the case of `C=CC(=O)OCCOc1ccc(-c2nc3cc(C4(c5ccc6oc(-c7ccc(OCCOC(=O)C=C)cc7)nc6c5)c5ccccc5-c5cc6ccccc6cc54)ccc3o2)cc1` [Compound H], the Solvent solubility evaluation result is “B (30% by mass or more and less than 50% by mass of an aromatic ring-containing compound were dissolved in PGMEA)”.

In the case of `C=CC(=O)OCCOc1ccc2nc(C3(c4nc5ccc(OCCOC(=O)C=C)cc5s4)c4ccccc4-c4ccccc43)sc2c1` [Compound I], the Solvent solubility evaluation entry is “A (50% by mass or more of an aromatic ring-containing compound were dissolved in PGMEA)”.

As to `C=CC(=O)OCCOc1ccc(C2(c3ccc4sc(-c5ccc6cc(OCCOC(=O)C=C)ccc6c5)nc4c3)c3ccccc3-c3cc4ccccc4cc32)cc1` (stereo not drawn) [Compound J], the Solvent solubility evaluation entry is “A (50% by mass or more of an aromatic ring-containing compound were dissolved in PGMEA)”.
